Where “and” joins values, the source holds several entries; their conditions need not be identical. Identical values can stand only once.
Legend:
[1] = Photostability after UV irradiation, absorbance spectra; assay type: physicochemical; details: for Absorbance peak, Without UV irradiation / Absorbance peak, Irradiation 2000 J/dm2 / Absorbance peak, Irradiation 4000 J/dm2 / λmax after irradiation / Effect of irradiation on UV absorbance profile: Ethanol; for Absorbance peak, Without UV irradiation / Absorbance peak, Irradiation 2000 J/dm2 / Absorbance peak, Irradiation 4000 J/dm2: 1 mM; for Absorbance peak, Irradiation 2000 J/dm2: 1 h; for λmax after irradiation / Effect of irradiation on UV absorbance profile: 2000 or 4000 J/dm2 for 1 or 2 hours; for Effect of irradiation on UV absorbance profile: UVB and UVA range
Procedure: (§1) Compound #2 (OOD), Univul A plus (DHHB), Octocrylene (OCR), and Univul A plus (DHHB)+Octocrylene (OCR) were dissolved in Ethanol at 1 mM and were irradiated at 2000 and 4000 J/dm2 for 1 h and 2 h in a 24-well plate, respectively, in 2 replicates (1 replicate for HPLC and 1 replicate for absorbance spectra).
(§2) Compound #4 (OHD), Univul A plus (DHHB), Octocrylene (OCR), and Univul A plus (DHHB)+Octocrylene (OCR) were dissolved in Ethanol at 1 mM and were irradiated at 2000 and 4000 J/dm2 for 1 h and 2 h in a 24-well plate, respectively, in 2 replicates (1 replicate for HPLC and 1 replicate for absorbance spectra).
(§3) Compound #5 (BOO), Tinosorb S (BEMT), and Octocrylene (OCR) were dissolved in Dubdis at 2 mM and were irradiated at 4000 J/dm2 for 2 h in a 24-well plate, respectively, in 2 replicates (1 replicate for HPLC and 1 replicate for absorbance spectra).

[2] = Photostability after UV irradiation, HPLC; assay type: physicochemical
Procedure: as §1, §2, §3

[3] = UV absorbance profile: λmax in solvents, FLUOstar plate reader; assay type: physicochemical; details: 125 μM
Procedure: Compound #2 (OOD), Univul A plus (DHHB)+Octocrylene (OCR) were dissolved in a solvent at the same concentration (125 μM).
Compound #4 (OHD), Univul A plus (DHHB)+Octocrylene (OCR) were dissolved in a solvent at the same concentration (125 μM).
Compound #5 (BOO) and BEMT (6,6′-(6-(4-methoxyphenyl)-1,3,5-triazine-2,4-diyl)bis(3-((2-ethylhexyl)oxy)phenol)=Tinosorb S)+Octocrylene (OCR) were dissolved in a solvent at the same concentration (50 μM).
UV Absorbance Profil of Compound #6 (BOO-OM) Compound #6 (BOO-OM) and BEMT (6,6′-(6-(4-methoxyphenyl)-1,3,5-triazine-2,4-diyl)bis(3-((2-ethylhexyl)oxy)phenol)=Tinosorb S)+Octocrylene (OCR) were dissolved in a solvent at the same concentration (50 μM).

[4] = Solubility in sunscreen solvents; assay type: physicochemical; details: 50° C.
Procedure: Compound #2 (OOD) and a sunscreen solvent were weighed in a Becher. The Becher was placed on a magnetic stir plate, heated up to 50° C., and the solution was vigorously mixed with a bar magnet.
Compound #4 (OHD) and a sunscreen solvent were weighed in a Becher. The Becher was placed on a magnetic stir plate, heated up to 50° C., and the solution was vigorously mixed with a bar magnet.
Compound #5 (BOO) and a sunscreen solvent were weighed in a Becher. The Becher was placed on a magnetic stir plate, heated up to 50° C., and the solution was vigorously mixed with a bar magnet.
Compound #6 (BOO-OM) and a sunscreen solvent were weighed in a Becher. The Becher was placed on a magnetic stir plate, heated up to 50° C., and the solution was vigorously mixed with a bar magnet.

[5] = tested on: pig skin; assay: UV protection ex vivo on pig skin by autofluorescence quenching; details: Dottisol
Procedure: UV Protection Performance of Compound #2 (OOD) UVB and UVA protections have been assessed ex vivo on pig skin by measuring the autofluorescence quenching. OOD (Compound #2), the mix of DHHB+OCR were solubilized at the same molar concentration in Dottisol (isosorbide dimethyl ether), covered 6.25 cm2 skin square and incubated 20 min or 2 hours at room temperatures, and then 7 mm skin punches were cut and placed in a black 96-well plate. UVB and UVA protections were measured after respectively an excitation at 300 nm and 355 nm and a fluorescence emission was read at 460 nm. DMSO was added on the pig skin before the reading of the residual fluorescence.
UVB and UVA protections have been assessed ex vivo on pig skin by measuring the autofluorescence quenching. BOO (Compound #5) and the mix of BEMT+OCR were solubilized at the same molar concentration in Dottisol (isosorbide dimethyl ether), covered 6.25 cm^2 skin square and incubated 4 hours at 34° C., washed or not with 10 mL Ethanol for 5 min, and then 7 mm diameter skin punches were cut and placed in a black 96-well plate. UVB and UVA protections were measured after respectively an excitation at 300 nm and 355 nm and a fluorescence emission was read at 460 nm.
UVB protection has been assessed ex vivo on pig skin by measuring the autofluorescence quenching. BOO (Compound #5), BOO-OM (Compound #6) and the mix of BEMT+OCR were solubilized at the same molar concentration in DMDA (dimethyl capramide), covered 6.25 cm2 skin square and incubated 2 hours at 34° C., washed or not with 10 mL Ethanol for 5 min, and then 7 mm diameter skin punches were cut and placed in a black 96-well plate. UVB protection was measured after respectively an excitation at 300 nm and a fluorescence emission was read at 460 nm.

[6] = Cetiol HE (PEG-7 Glyceryl Cocoate)
[7] = pig skin autofluorescence after 2 h of incubation, Mean +/− SD, N = 3

SMILES: CCCCC(CC)COC(=O)C(C#N)=C(c1ccccc1)c1ccccc1 (centres unmarked) [OCR, 2-ethylhexyl 2 cyano-3,3-diphenylacrylate, reference compound]
- Absorbance peak, Without UV irradiation, first or only peak ([1]; Dubdis, 2 mM): 305 nm
- Absorbance peak, Irradiation 4000 J/dm2, first or only peak ([1]; Dubdis, 2 mM, 2 h): 309 nm
- Absorbance peak, Without UV irradiation [1]: 304 nm
- Absorbance peak, Irradiation 2000 J/dm2 [1]: 304 nm
- Absorbance peak, Irradiation 4000 J/dm2 ([1]; 2 h): 304 nm
- degradation observed by HPLC after irradiation ([2]; Dubdis): No degradation
- degradation observed by HPLC after irradiation ([2]; Ethanol): No degradation

SMILES: CCN(CC)c1ccc(C(=O)c2ccccc2C(=O)NCCCCCCCCOC(=O)C(C#N)=C(c2ccccc2)c2ccccc2)c(O)c1 [Compound #2, 8-[[2-[4-(diethylamino)-2-hydroxy-benzoyl]benzoyl]amino]octyl 2-cyano-3,3-diphenyl-prop-2-enoate]
- λmax ([3]; Cetiol B (Dibutyl Adipate)): 355 nm
- λmax [3, 6]: 355 nm
- λmax ([3]; DMSO): 356 nm
- λmax ([3]; Dubdis (diisopropyl sebacate), listed as OOD): 355 nm and 356 nm
- λmax ([3]; Ethanol): 356 nm
- Absorbance peak, Without UV irradiation [1]: 357 nm
- Absorbance peak, Irradiation 2000 J/dm2 [1]: 357 nm
- Absorbance peak, Irradiation 4000 J/dm2 ([1]; 2 h): 357 nm
- λmax after irradiation [1]: 357 nm
- Effect of irradiation on UV absorbance profile [1]: did not modify
- degradation observed by HPLC after irradiation ([2]; Ethanol): No degradation
- purity by HPLC after irradiation ([2]; Ethanol): 98.80%
- purity by HPLC, non-irradiated ([2]; Ethanol): 99.17%
- soluble at ratio ([4]; Cetiol B (Dibutyl Adipate)): 1/1
- soluble at ratio [4, 6]: ⅕
- soluble at ratio ([4]; Dubdis (Diisopropyl sebacate)): 1/1
- UVA and UVB protections of the pig skin compared to the mix OCR+DHHB ([5]; 2 h incubation): similar
- UVA Fluorescence (Ex355/Em460) [5, 7]: 2881 +/− 617
- UVB Fluorescence (Ex300/Em460) [5, 7]: 15248 +/− 3227

SMILES: CCN(CC)c1ccc(C(=O)c2ccccc2C(=O)NCCCCCCOC(=O)C(C#N)=C(c2ccccc2)c2ccccc2)c(O)c1 [Compound #4, 6-[[2-[4-(diethylamino)-2-hydroxy-benzoyl]benzoyl]amino]hexyl 2-cyano-3,3-diphenyl-prop-2-enoate]
- λmax ([3]; DMSO): 356 nm
- λmax ([3]; Ethanol): 356 nm
- Absorbance peak, Without UV irradiation [1]: 358 nm
- Absorbance peak, Irradiation 2000 J/dm2 [1]: 357 nm
- Absorbance peak, Irradiation 4000 J/dm2 ([1]; 2 h): 357 nm
- λmax after irradiation [1]: 357 nm
- Effect of irradiation on UV absorbance profile [1]: did not modify
- degradation observed by HPLC after irradiation ([2]; Ethanol): No degradation
- purity by HPLC after irradiation ([2]; Ethanol): 97.84%
- purity by HPLC, non-irradiated ([2]; Ethanol): 98.13%
- soluble at ratio ([4]; Cetiol B (Dibutyl Adipate)): ⅓
- soluble at ratio ([4]; Dimethyl capramide (Spectrasolv DMDA)): 1/1

SMILES: CCCCCCOC(=O)c1ccccc1C(=O)c1ccc(N(CC)CC)cc1O [DHHB, diethylamino hydroxybenzoyl hexyl benzoate, reference compound]
- Absorbance peak, Without UV irradiation [1]: 357 nm
- Absorbance peak, Irradiation 2000 J/dm2 [1]: 357 nm
- Absorbance peak, Irradiation 4000 J/dm2 ([1]; 2 h): 357 nm
- degradation observed by HPLC after irradiation ([2]; Ethanol): No degradation

SMILES: CCCCC(CC)COc1ccc(-c2nc(-c3ccc(OC)cc3)nc(-c3ccc(OCC(CC)CCCC)cc3O)n2)c(O)c1 (centres unmarked) [BEMT, 6,6′-(6-(4-methoxyphenyl)-1,3,5-triazine-2,4-diyl)bis(3-((2-ethylhexyl)oxy)phenol), reference compound]
- Absorbance peak, Without UV irradiation, first or only peak ([1]; Dubdis, 2 mM): 310 nm
- Absorbance peak, Without UV irradiation, second peak ([1]; Dubdis, 2 mM): 351 nm
- Absorbance peak, Irradiation 4000 J/dm2, first or only peak ([1]; Dubdis, 2 mM, 2 h): 310 nm
- Absorbance peak, Irradiation 4000 J/dm2, second peak ([1]; Dubdis, 2 mM, 2 h): 351 nm
- degradation observed by HPLC after irradiation ([2]; Dubdis): No degradation

Source: US20260240740A1, “MULTI-PHOTOPROTECTIVE COMPOUNDS AND USES THEREOF” (SKINOSIVE, priority 2022, published 2026)
